Source: patent US20240301359A1, “SYSTEM COMPRISING CISPLATIN-RESISTANT XENOGRAFT FOR NASOPHARYNGEAL CARCINOMA AND METHODS THEREOF” (THE UNIVERSITY OF HONG KONG, priority 2023, published 2024)

Key:
Type in all cases: in vivo
[1] = system: xeno76-CR cisplatin-resistant NPC PDX; assay: ixazomib treatment of xeno76-CR-bearing nude mice
Experimental: (§1) Xeno76-CR-bearing nude mice were randomized into the control and 4 mg/kg ixazomib treatment group (n=4). Referring to FIG. 5A, black arrows represent the treatment day. Data presented are mean (n=4) with error bars showing SEM. Statistical significance was done using one-way ANOVA, **** P<0.0001.
(§2) The images of size and appearance of the xeno76-CR tumor-bearing mice between control and treatment groups on day 21 are shown in FIG. 5B. […] In FIG. 5C and FIG. 5D, data presented are means (n=4) with error bars showing the SEM. Statistical significance was done using the unpaired two-tailed t-test. Black arrows represent the treatment day.

[2] = body weight and side effects in ixazomib-treated nude mice
Experimental: as §1, §2

xeno76 primary NPC = assay: ixazomib sensitivity of primary NPC PDX xeno76; settings: naïve to radio- and chemotherapy, relatively low dosage
xeno113 metastatic NPC = assay: ixazomib sensitivity of metastatic NPC PDX xeno113; settings: relatively low dosage
xeno76 NPC PDX = assay: cisplatin treatment of xeno76 PDX-bearing nude mice
Experimental: (§3) Parental xeno76 and xeno76-CR-bearing nude mice were randomized into control and treatment groups (n=4). […] The tumor volume was measured and recorded during the whole treatment period, and the tumor growth curves of xeno76 and xeno76-CR are shown in Error! […] Black arrows represent the treatment day. The xeno76 and xeno76-CR nude mice were randomized respectively on day 0 and received the first treatment. Data presented are mean (n=4) with error bars showing SEM. Statistical significance was done using paired two-tailed t-test, *** P<0.001, ns P>0.05. Furthermore, the tumors of xeno76 and xeno76-CR were also weighed and harvested for further investigation (FIG. 2C). Statistical significance was done using the unpaired two-tailed t-test, ** P<0.01, ns P>0.05.

[3] = system: xeno76-CR cisplatin-resistant NPC PDX; assay: cisplatin treatment of xeno76-CR PDX-bearing nude mice; settings: 3 mg/kg cisplatin weekly i.p., at harvest, ns P>0.05
Experimental: as §3

[4] = maximum tolerated dose of cisplatin in nude mice; settings: weekly i.p.
From the text: A protocol for developing cisplatin-resistant PDX model from the NPC PDX models is described. NPC PDX tissues were implanted in nude mice subcutaneously (FIG. 1).

| SMILES | sensitivity to ixazomib ([1]; cisplatin-resistant NPC (xeno76-CR), relatively low dosage, summary statement) | tumor weight at the endpoint of the experiment ([1]; xeno76-CR, 4 mg/kg ixazomib, n=4 mean, control group 0.52 g, * P<0.05) [g] | tumor growth (tumor volume) vs control ([1]; xeno76-CR, 4 mg/kg ixazomib, three-week treatment, n=4, **** P<0.0001) | observable side effects or weight loss ([2]; 4 mg/kg ixazomib, xeno76-CR bearing nude mice) | side effects and body weight loss ([2]; all the tested animals, summary statement) | sensitivity to ixazomib (xeno76 primary NPC) | sensitivity to ixazomib (xeno113 metastatic NPC) | tumor growth (tumor volume) vs control (xeno76 NPC PDX; 3 mg/kg cisplatin in saline weekly i.p., n=4, *** P<0.001) | tumor weight vs control (xeno76 NPC PDX; 3 mg/kg cisplatin weekly i.p., at harvest) | tumor weight vs control [3] | maximum tolerated dose [4] [mg/kg] |
| --- | --- | --- | --- | --- | --- | --- | --- | --- | --- | --- | --- |
| CC(C)C[C@H](NC(=O)CNC(=O)c1cc(Cl)ccc1Cl)B(O)O [ixazomib] | sensitive to ixazomib | 0.21 | effectively inhibited xeno76-CR growth | did not induce any observable side effects or weight loss | no side effects and body weight loss | sensitive to ixazomib | sensitive to ixazomib | – | – | – | – |
| N.N.[Cl][Pt][Cl] [cisplatin] | – | – | – | – | – | – | – | significantly inhibited | significantly lighter than the xeno76 control group | no significant differences | 5 |
